Data on ten compounds can be found in patent publication US8119805B2, “Substituted disulfonamide compounds” (Gruenenthal GmbH, priority 2008, dated 2012).

Structures can show the parent of a compound that is named as a salt.

For test [1], the target named is T1, B1R receptor of the rat (rB1R) (Rattus norvegicus, UniProt P97583).
T1 construct: expressed in transfected cells; host or cells: CHO K1 cells
T1 sequence (P97583 1-337): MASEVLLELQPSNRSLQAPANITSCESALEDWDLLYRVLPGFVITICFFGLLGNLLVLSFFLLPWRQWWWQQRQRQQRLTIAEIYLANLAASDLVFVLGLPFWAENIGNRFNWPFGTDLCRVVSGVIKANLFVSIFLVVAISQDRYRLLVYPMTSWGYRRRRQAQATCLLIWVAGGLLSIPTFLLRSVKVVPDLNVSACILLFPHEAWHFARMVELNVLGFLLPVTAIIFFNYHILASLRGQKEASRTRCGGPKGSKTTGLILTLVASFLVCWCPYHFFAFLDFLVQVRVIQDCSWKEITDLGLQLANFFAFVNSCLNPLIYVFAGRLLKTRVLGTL
The test is described as follows: Functional investigation on the bradykinin 1 receptor (B1R), FLIPR Ca2+ assay, rB1R cells. Particulars: test substance 10 μM; CHO K1 cells transfected with rat B1R gene; Fluo-4 Ca2+ signal; agonist Des-Arg9-bradykinin at EC80; % of maximum achievable inhibition; read-out: B1R antagonism, rat [10 μM] % inhibition. Type of test: cell-based. On the procedure:
(§1) The agonistic or antagonistic action of substances on the bradykinin 1 receptor (B1R) of the human and rat species can be quantified with ectopically expressing cell lines (CHO K1 cells) and with the aid of a Ca^2+-sensitive dyestuff (Fluo-4) in a fluorescent imaging plate reader (FLIPR). The value in % activation is based on the Ca^2+ signal after addition of Lys-Des-[…]-bradykinin (0.5 nM) or Des-[…]-bradykinin (100 nM). Antagonists lead to a suppression of the Ca^2+inflow after addition of the agonist. % inhibition compared with the maximum achievable inhibition is stated. The agonistic or antagonistic action of substances on the bradykinin 1 receptor (B1R) of the human and rat species can be determined with the following assay. In accordance with this assay, the Ca^2+ inflow through the channel is quantified with the aid of a Ca^2+-sensitive dyestuff (type Fluo-4, Molecular Probes Europe BV, Leiden, Holland) in a fluorescent imaging plate reader (FLIPR, Molecular Devices, Sunnyvale, USA). Chinese hamster ovary cells (CHO K1 cells) transfected stably with the human B1R gene (hB1R cells) or the B1R gene of the rat (rB1R cells) are used. For functional studies, these cells are plated out on black 96-well plates with a clear base (BD Biosciences, Heidelberg, Germany or Greiner, Frickenhausen, Germany) in a density of 20,000-35,000 cells/well. The cells are left overnight at 37° C. and 5% CO2 in culture medium (hB1R cells: Nutrient Mixture Ham's F12, Gibco Invitrogen GmbH, Karlsruhe, Germany or DMEM, Sigma-Aldrich, Taufkirchen, Germany; rB1R cells: D-MEM/F12, Gibco Invitrogen GmbH, Karlsruhe, Germany) with 10 vol. % FBS (foetal bovine serum, Gibco Invitrogen GmbH, Karlsruhe, Germany or PAN Biotech GmbH, Aidenbach, Germany). On the following day, the cells are loaded for 60 min at 37° C. with 2.13 μM Fluo-4 (Molecular Probes Europe BV, Leiden Holland) in HBSS buffer (Hank's buffered saline solution, Gibco Invitrogen GmbH, Karlsruhe, Germany) with 2.5 mM probenecid (Sigma-Aldrich, Taufkirchen, Germany) and 10 mM HEPES (Sigma-Aldrich, Taufkirchen, Germany). The plates are then washed 2× with HBSS buffer, and HBSS buffer which additionally contains 0.1% BSA (bovine serum albumin; Sigma-Aldrich, Taufkirchen, Germany), 5.6 mM glucose and 0.05% gelatine (Merck KGaA, Darmstadt, Germany) is added. After a further incubation of 20 minutes at room temperature, the plates are inserted into the FLIPR for the Ca^2+ measurement. Alternatively, the plates are washed with buffer A (15 mM HEPES, 80 mM NaCl, 5 mM KCl, 1.2 mM CaCl2, 0.7 mM MgSO4, 2 g/l glucose, 2.5 mM probenecid), buffer A is added and the plates are loaded with 2.5 μM Fluo-4 and 0.025% Pluronic F127 (Sigma-Aldrich, Taufkirchen, Germany). Thereafter, the cells are washed 2× with buffer A and incubated for 30 minutes at room temperature with buffer A, which additionally contains 0.05% BSA and 0.05% gelatine, and thereafter inserted into the FLIPR for the Ca^2+ measurement. The Ca^2+-dependent fluorescence is measured here before and after addition of substances (λex=488 nm, λem=540 nm). Quantification is by measurement of the highest fluorescence intensity (FC, fluorescence counts) over time. The FLIPR protocol consists of 2 additions of substance. Test substances (10 μM) are first pipetted on to the cells and the Ca^2+ inflow is compared with the control (hB1R: Lys-Des-[…]-bradykinin>=50 nM; rB1R: Des-[…]-bradykinin 10 μM). This gives the result in % activation based on the Ca^2+ signal after addition of Lys-Des-[…]-bradykinin (>=50 nM) or Des-[…]-bradykinin (10 μM). After incubation for 10-20 minutes, Lys-Des-[…]-bradykinin (hB1R) or Des-[…]-bradykinin (rB1R) at the EC80 concentration is applied and the inflow of Ca^2+ is likewise determined. Antagonists lead to a suppression of the Ca^2+ inflow. The percent inhibition compared to the maximum achievable inhibition is calculated. In order to determine the IC50 value, the substances are added in various concentrations. […]

The target in test [2] is T2, human B1R receptor (hB1R) (Homo sapiens, UniProt P46663).
T2 construct: expressed in transfected cells; host or cells: CHO K1 cells
T2 sequence (P46663 1-353): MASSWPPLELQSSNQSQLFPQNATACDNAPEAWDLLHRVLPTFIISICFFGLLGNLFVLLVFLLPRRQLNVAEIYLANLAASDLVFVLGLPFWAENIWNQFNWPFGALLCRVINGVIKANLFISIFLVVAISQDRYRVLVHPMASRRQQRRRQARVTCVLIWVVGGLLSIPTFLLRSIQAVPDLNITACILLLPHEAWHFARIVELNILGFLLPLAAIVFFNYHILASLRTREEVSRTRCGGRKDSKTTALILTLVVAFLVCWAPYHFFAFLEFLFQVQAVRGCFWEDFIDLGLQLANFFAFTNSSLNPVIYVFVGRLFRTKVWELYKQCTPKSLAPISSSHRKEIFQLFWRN
In words: Functional investigation on the bradykinin 1 receptor (B1R), FLIPR Ca2+ assay, hB1R cells. Type of test: cell-based. Particulars: test substance 10 μM; CHO K1 cells transfected with human B1R gene; Fluo-4 Ca2+ signal; agonist Lys-Des-Arg9-bradykinin at EC80; % of maximum achievable inhibition; read-out: B1R antagonism, human [10 μM] % inhibition. On the procedure: as §1

By inhibition is commonly meant the drop in the measured response relative to a control, in per cent. `COc1cc(C)c(S(=O)(=O)N2CCC[C@H]2CCCS(=O)(=O)N2CCC3(CCC(N4CC(F)(F)C4)CC3)CC2)c(C)c1` [Example 63, 9-(3,3-Difluoroazetidin-1-yl)-3-(3-((S)-1-(4-methoxy-2,6-dimethylphenylsulfonyl)pyrrolidin-2-yl)propylsulfonyl)-3-azaspiro[5.5]undecane]: the inhibition at 10 µM is 102% in test [1] and 99% in test [2].
For `COc1cc(C)c(S(=O)(=O)N2c3ccccc3CC2CCCS(=O)(=O)N2CCC(O)(c3cccnc3)CC2)c(C)c1` (centres unmarked) [Example 44, 1-(3-(1-(4-Methoxy-2,6-dimethylphenylsulfonyl)indolin-2-yl)propylsulfonyl)-4-(pyridin-3-yl)piperidin-4-ol] the same measures were 105% and 82%.
Take `COc1cc(C)c(S(=O)(=O)N2c3ccccc3CC2CCCS(=O)(=O)N2CCC3(CCN(c4ccncc4)CC3)CC2)c(C)c1` (centres unmarked) [Example 45, 1-(4-Methoxy-2,6-dimethylphenylsulfonyl)-2-(3-(9-(pyridin-4-yl)-3,9-diazaspiro[5.5]undecan-3-ylsulfonyl)propyl)indoline]: the inhibition at 10 µM in test [1] amounted to 102%; in test [2], 98%.
As to `COc1cc(C)c(S(=O)(=O)N2CCC[C@@H]2CCCS(=O)(=O)N2CCN(C3CCN(C)CC3)CC2)c(C)c1` [Example 34, (R)-1-(3-(1-(4-Methoxy-2,6-dimethylphenylsulfonyl)pyrrolidin-2-yl)propylsulfonyl)-4-(1-methylpiperidin-4-yl)piperazine], the inhibition at 10 µM came to 96% in test [1] and 99% in test [2].
Consider `Cc1cccc(Cl)c1S(=O)(=O)N1CCC[C@H]1CCCS(=O)(=O)N1CCC2(CCC(Oc3ccncc3)CC2)CC1` [Example 62, 3-(3-((S)-1-(2-Chloro-6-methylphenylsulfonyl)pyrrolidin-2-yl)propylsulfonyl)-9-(pyridin-4-yloxy)-3-azaspiro[5.5]undecane], for which the inhibition at 10 µM in test [1] worked out at 104%; in test [2], 84%.
As to `Cc1cc(S(=O)(=O)N2CCC(CCS(=O)(=O)N3CCN(Cc4cccc(C#N)c4)CC3)C2)c(C)cc1Cl` (centres unmarked) [Example 43, 3-((4-(2-(1-(4-Chloro-2,5-dimethylphenylsulfonyl)pyrrolidin-3-yl)ethylsulfonyl)piperazin-1-yl)methyl)benzonitrile hydrochloride], the inhibition at 10 µM in test [1] amounted to 50%; in test [2] it was 11%.
The matching figures for `O=S(=O)(CCC[C@@H]1CCCN1S(=O)(=O)c1cccc2c(Cl)cccc12)N1CCC2(CCN(c3ccncc3)CC2)CC1` [Example 76, 3-(3-((S)-1-(5-Chloronaphthalen-1-ylsulfonyl)pyrrolidin-2-yl)propylsulfonyl)-9-(pyridin-4-yl)-3,9-diazaspiro[5.5]undecane]: 95% and 95%.
For `O=S(=O)(CCC[C@@H]1CCCN1S(=O)(=O)c1cccc2ccccc12)N1[C@@H]2CC[C@H]1C[C@H](Oc1ccncc1)C2` [Example 58, (1R,3R,5S)-8-(3-((S)-1-(Naphthalen-1-ylsulfonyl)pyrrolidin-2-yl)propylsulfonyl)-3-(pyridin-4-yloxy)-8-azabicyclo[3.2.1]octane] the same measures were 94% and 56%.
For the compound `COc1cc(C)c(S(=O)(=O)N2CCCCC2CCCS(=O)(=O)N2CCC3(CCN(c4ccncc4)CC3)CC2)c(C)c1` (centres unmarked) [Example 74, 3-(3-(1-(4-Methoxy-2,6-dimethylphenylsulfonyl)piperidin-2-yl)propylsulfonyl)-9-(pyridin-4-yl)-3,9-diazaspiro[5.5]undecane], the inhibition at 10 µM is 95% in test [1] and 99% in test [2].
For `O=S(=O)(CCC1CCN(S(=O)(=O)c2cccc(Cl)c2Cl)C1)N1CCN(c2ccncc2)CC1` (centres unmarked) [Example 21, 1-(2-(1-(2,3-Dichlorophenylsulfonyl)pyrrolidin-3-yl)ethylsulfonyl)-4-(pyridin-4-yl)piperazine hydrochloride] the same measures were 73% and 97%.
